For 21 compounds, T/C results are on record in PubChem BioAssay AID328 (DTP/NCI, 2004).

The experiment relates to BDF1 mice, P388 leukemia ip, median survival T/C. Put plainly: NCI In Vivo Anticancer Drug Screen. Data for tumor model P388 Leukemia (intraperitoneal) in B6D2F1 (BDF1) mice. The conditions noted are these: endpoint: median survival time, higher = longer survival. Summed up: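 Reported as T/C, where T is the survival measurement in dosed animals and C the same measurement in vehicle controls.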

[1] abbreviates: dose: 100.0 mg/kg/injection, schedule: Q01DX009 (ip), vehicle: saline with Tween-80.
Setting [2] is: dose: 200.0 mg/kg/injection, schedule: Q01DX009 (ip), vehicle: saline with Tween-80.
The mark [3] stands for this setting: dose: 100.0 mg/kg/injection, schedule: Q01DX009 (ip), vehicle: saline.
[4] abbreviates: dose: 200.0 mg/kg/injection, schedule: Q01DX009 (ip), vehicle: saline.
Where [5] appears, read: dose: 400.0 mg/kg/injection, schedule: Q01DX009 (ip), vehicle: saline.
Where [6] appears, read: dose: 50.0 mg/kg/injection, schedule: Q01DX009 (ip), vehicle: saline with Tween-80.
Setting [7] is: dose: 50.0 mg/kg/injection, schedule: Q04DX003 (ip), vehicle: saline with Tween-80.
Setting [8] is: dose: 100.0 mg/kg/injection, schedule: Q04DX003 (ip), vehicle: saline with Tween-80.
The mark [9] stands for this setting: dose: 200.0 mg/kg/injection, schedule: Q04DX003 (ip), vehicle: saline with Tween-80.
[10] abbreviates: dose: 400.0 mg/kg/injection, schedule: Q01DX009 (ip), vehicle: saline with Tween-80.
Where [11] appears, read: dose: 400.0 mg/kg/injection, schedule: Q04DX003 (ip), vehicle: saline with Tween-80.

Values joined by “and” are separate entries in the source; they are usually repeats but may differ in a detail not shown here. Identical values can stand only once. Toxic doses and inconclusive results are not listed. Residues, ends and D or L forms follow the SMILES beside them.

Turning to `CC(C)c1ccc(C(=O)C2CC2)cc1`, the T/C reads like this: (dose: 25.0 mg/kg/injection, schedule: Q04DX003 (ip), vehicle: Klucel (hydroxypropylcellulose) (HPC)) 100 % of control; (dose: 50.0 mg/kg/injection, schedule: Q01DX009 (ip), vehicle: Klucel (hydroxypropylcellulose) (HPC)) 100 % of control; (dose: 50.0 mg/kg/injection, schedule: Q04DX003 (ip), vehicle: Klucel (hydroxypropylcellulose) (HPC)) 87 % of control; (dose: 100.0 mg/kg/injection, schedule: Q01DX009 (ip), vehicle: Klucel (hydroxypropylcellulose) (HPC)) 113 % of control; (dose: 100.0 mg/kg/injection, schedule: Q04DX003 (ip), vehicle: Klucel (hydroxypropylcellulose) (HPC)) 100 % of control; (dose: 200.0 mg/kg/injection, schedule: Q01DX009 (ip), vehicle: Klucel (hydroxypropylcellulose) (HPC)) 113 % of control. The T/C (dose: 200.0 mg/kg/injection, schedule: Q04DX003 (ip), vehicle: Klucel (hydroxypropylcellulose) (HPC)) was 95 % of control.

Take `ClCCN(CCCl)c1ccc(/C=C\c2ccnc3ccccc23)cc1`: the T/C was 104 % of control under setting [1] and 86 % of control under setting [2].

Regarding `NC(Cc1cc(Br)c(O)c(Br)c1)C(=O)O` (stereo not given), the T/C was 108 % of control (dose: 25.0 mg/kg/injection, schedule: Q01DX009 (ip), vehicle: saline); 92 % of control (dose: 50.0 mg/kg/injection, schedule: Q01DX009 (ip), vehicle: saline); 120 % of control (dose: 50.0 mg/kg/injection, schedule: Q04DX003 (ip), vehicle: saline); 96 % of control under setting [3]; 105 % of control (dose: 100.0 mg/kg/injection, schedule: Q04DX003 (ip), vehicle: saline); 120 % of control under setting [4]. For the same compound, the T/C (dose: 200.0 mg/kg/injection, schedule: Q04DX003 (ip), vehicle: saline) was 115 % of control and the T/C under setting [5] is 113 % of control.

As for `COc1ccc2c(c1)CC1NCCc3cc4c(c-2c31)OCO4` (stereo not given), the T/C is, setting by setting: under setting [6], 114 % of control; under setting [1], 97 % of control.

With `Cc1ccc(NC(=O)N(CCCl)N=O)c(C)c1`, the T/C (dose: 6.25 mg/kg/injection, schedule: Q01DX009 (ip), vehicle: saline with Tween-80) is 90 % of control; the T/C (dose: 12.5 mg/kg/injection, schedule: Q01DX009 (ip), vehicle: saline with Tween-80) is 159 % of control; the T/C (dose: 25.0 mg/kg/injection, schedule: Q01DX009 (ip), vehicle: saline with Tween-80) was 118 % of control.

On to `CC(=O)OCC1OC(N)C(OC(C)=O)C(OC(C)=O)C1OC(C)=O` (stereo not given), for which the T/C was 97 % of control under setting [6], 92 % of control under setting [1] and 96 % of control under setting [2].

On to `CC(N)C(=O)NC(C)C(=O)NC(C)C(=O)NC(C)C(=O)O` (stereo not given) (H-AAAA-OH; configuration not given here), for which the T/C is, setting by setting: (dose: 50.0 mg/kg/injection, schedule: Q01DX005 (ip), vehicle: saline) 93 % of control; (dose: 100.0 mg/kg/injection, schedule: Q01DX005 (ip), vehicle: saline) 98 % of control; (dose: 200.0 mg/kg/injection, schedule: Q01DX005 (ip), vehicle: saline) 105 % of control.

On to `CC(O)C#N` (stereo not given), for which the T/C is 108 % of control (dose: 1.25 mg/kg/injection, schedule: Q01DX009 (ip), vehicle: saline); 101 % of control (dose: 2.5 mg/kg/injection, schedule: Q01DX009 (ip), vehicle: saline); 101 % of control (dose: 5.0 mg/kg/injection, schedule: Q01DX009 (ip), vehicle: saline).

Take `Cc1cc(NC(=O)Nc2ccc(C3=NCCCN3)cc2)ccc1NC(=O)Nc1ccc(C2=NCCCN2)cc1`: the T/C (dose: 29.0 mg/kg/injection, schedule: Q01DX009 (ip), vehicle: saline) is 166 % of control; the T/C (dose: 45.0 mg/kg/injection, schedule: Q01DX009 (ip), vehicle: saline) was 153 % of control; the T/C (dose: 65.0 mg/kg/injection, schedule: Q01DX009 (ip), vehicle: saline) is 157 % of control; the T/C under setting [3] is 216 % of control; the T/C (dose: 130.0 mg/kg/injection, schedule: Q01DX009 (ip), vehicle: saline) was 243 % of control; the T/C under setting [4] is 227 % of control and 219 % of control. The T/C was 169 % of control (dose: 300.0 mg/kg/injection, schedule: Q01DX009 (ip), vehicle: saline) and 98 % of control under setting [5].

Take `CCC(=O)/C=C/c1ccccc1`: the T/C runs as follows: under setting [6], 93 % of control; under setting [1], 109 % of control; under setting [2], 118 % of control.

With `C=CC(C#N)(C=C)C=C`, the T/C under setting [6] was 104 % of control.

As to `C=CCc1ccccc1OC`, the T/C under setting [6] is 118 % of control and the T/C under setting [1] was 104 % of control.

On to `CS(=O)(=O)OCC(OS(C)(=O)=O)C(COS(C)(=O)=O)OS(C)(=O)=O` (stereo not given), for which the T/C under setting [6] was 100 % of control; the T/C under setting [7] is 95 % of control; the T/C under setting [1] was 102 % of control; the T/C under setting [8] was 91 % of control; the T/C under setting [2] is 93 % of control; the T/C under setting [9] is 95 % of control. For the same compound, the T/C is, setting by setting: under setting [10], 88 % of control; under setting [11], 91 % of control.

Regarding `CCCCN(CCCC)CC(O)c1c2cccc(Cl)c2cc2c(Cl)cccc12` (stereo not given), the T/C reads like this: under setting [6], 107 % of control; under setting [1], 102 % of control; under setting [2], 123 % of control.

Regarding `COC(=O)C(Br)C(OC)c1ccc(C)cc1` (stereo not given), the T/C by setting is: under setting [1], 100 % of control; under setting [2], 100 % of control; under setting [10], 95 % of control.

As for `CC(C)C1(C)NC(=O)NC1=O` (stereo not given), the T/C is 113 % of control (dose: 100.0 mg/kg/injection, schedule: Q01DX001 (ip), vehicle: saline); 109 % of control (dose: 200.0 mg/kg/injection, schedule: Q01DX001 (ip), vehicle: saline); 95 % of control (dose: 400.0 mg/kg/injection, schedule: Q01DX001 (ip), vehicle: saline).

`CCCCC(=O)N(c1ccc(Nc2c3ccccc3nc3cc([N+](=O)[O-])ccc23)cc1)S(C)(=O)=O`: the T/C is 167 % of control (dose: 0.44 mg/kg/injection, schedule: Q01DX009 (ip), vehicle: saline with Tween-80); 180 % of control (dose: 0.66 mg/kg/injection, schedule: Q01DX009 (ip), vehicle: saline with Tween-80); 194 % of control (dose: 1.0 mg/kg/injection, schedule: Q01DX009 (ip), vehicle: saline with Tween-80); 205 % of control (dose: 1.5 mg/kg/injection, schedule: Q01DX009 (ip), vehicle: saline with Tween-80); 154 % of control (dose: 2.2 mg/kg/injection, schedule: Q04DX003 (ip), vehicle: saline with Tween-80); 150 % of control (dose: 3.3 mg/kg/injection, schedule: Q04DX003 (ip), vehicle: saline with Tween-80). Besides, the T/C by setting is: (dose: 5.0 mg/kg/injection, schedule: Q04DX003 (ip), vehicle: saline with Tween-80) 186 % of control; (dose: 12.5 mg/kg/injection, schedule: Q04DX003 (ip), vehicle: saline with Tween-80) 218 % of control; (dose: 22.0 mg/kg/injection, schedule: Q04DX003 (ip), vehicle: saline with Tween-80) 250 % of control; (dose: 25.0 mg/kg/injection, schedule: Q04DX003 (ip), vehicle: saline with Tween-80) 245 % of control; (dose: 33.0 mg/kg/injection, schedule: Q04DX003 (ip), vehicle: saline with Tween-80) 175 % of control and 209 % of control; under setting [7], 225 % of control and 272 % of control and 181 % of control. The T/C (dose: 75.0 mg/kg/injection, schedule: Q04DX003 (ip), vehicle: saline with Tween-80) was 109 % of control and 204 % of control.

For the compound `CCOC(=O)c1cnn(C(N)=O)c1N`, the T/C under setting [1] is 115 % of control; the T/C under setting [8] was 110 % of control; the T/C under setting [2] was 90 % of control; the T/C under setting [9] was 115 % of control; the T/C under setting [10] is 109 % of control and 115 % of control; the T/C under setting [11] is 115 % of control.

Turning to `CC(=O)NC(Cc1ccc(F)cc1)C(=O)O` (stereo not given), the T/C under setting [2] is 121 % of control.

As for `O=C(Cn1ccc(=O)[nH]c1=O)c1cccs1`, the T/C is 90 % of control under setting [1]; 100 % of control under setting [8]; 86 % of control under setting [2]; 95 % of control under setting [9]; 100 % of control under setting [10]; 95 % of control under setting [11].

`Nc1nc(N)c2nc(Sc3ccc(Cl)cc3)c(-c3ccccc3)nc2n1`: the T/C by setting is: under setting [8], 88 % of control; under setting [11], 99 % of control.
